Test system: rat myoblasts (L6 cells)
Test: Measurement of glucose uptake activity in rat myoblasts (L6 cells), 2-NBDG fluorescence
Assay type: cell-based
Conditions: insulin final concentration 100 nM (positive control), 100 μM 2-NBDG, 20 minutes
Method: Test 1: Measurement of Glucose Uptake Activity in Rat Myoblasts (L6 Cells)
L6 cells were seeded (1×10^4 cells/well) in a 96-well plate with a D-MEM medium (Dulbecco/Vogt modified Eagle's minimal essential medium) containing 10% fetal bovine serum, and pre-cultured for 48 hours (5% CO2, 37° C.) Then, the medium was replaced with a D-MEM medium containing 2% horse serum and culture was performed for 96 hours (5% CO2, 37° C.) to induce differentiation. Subsequently, the medium was replaced with a serum-free D-MEM medium, and synchronous culture was performed for 4 hours (5% CO2, 37° C.). Thereafter, the wells were washed with a KRPH buffer (Krebs Ringer Phosphate Hepes buffer), and 100 μL of a sample solution (final concentration 1 mg/mL or 5 mg/mL) dissolved in a KRPH buffer containing 100 μM 2-NBDG (2-deoxy-2-[(7-nitro-2,1,3-benzoxadiazol-4-yl)amino]-D-glucose) was added and incubated for 20 minutes (5% […], 37° C.). […] The fluorescence intensity of 2-NBDG, as the fluorescent glucose analogue incorporated into the cells, was measured at an excitation wavelength of 470 nm and a detection wavelength of 550 nm using a microplate reader. The glucose uptake activity was determined based on the following formula as the ratio of the fluorescence intensity (FS) in the case of making the sample solution react when the fluorescence intensity (FC) of the control was taken as 100. […]

## insulin
  Glucose uptake activity: significantly increased
